pIC50: −log10 of the molar value.

Holding throughout (assay type): cell-based, Human
The subject of assay [1] is HT 29 (Colon adenocarcinoma). The assay can be described thus: In vitro cytotoxicity, microculture tetrazolium (MTT) assay, HT29. The note with it: further 48 h, Table 1. The protocol: (§1) The microculture tetrazolium assay was used to test in vitro cytotoxicity. This assay is described in Plumb, J. A. et al., 1989 Cancer Research 49, 4435-4440, which is herein incorporated by reference. The cytotoxicity of compounds towards tumor cells is measured in vitro using the assay. This assay method is based upon the ability of live, but not dead cells to reduce the yellow water soluble dye 3-(4,5-dimethylthiazol-2-yl)-2,5-diphenyltetrazolium bromide (MTT) to its water insoluble purple formazan product.
(§2) Human Tumor Cell lines, used were:
HT 29 (Colon adenocarcinoma) ATCC catalog #HTB-38.
(§3) The cells were maintained in exponential growth in culture in minimal essential media (MEM) supplemented with non-essential amino acids, and containing 15% (v/v) fetal. bovine serum, 5 mM L-glutamine, 1 mM sodium pyruvate, and 0.1 U/ml insulin. All cell lines were grown at 37° C. in an atmosphere of 5% CO2 in air.
(§4) MTT: 2 mg/ml in phosphate buffered saline (stable at 4° C. in dark for 1 week).
(§5) Sorensen's buffer: 0.1M glycine/NaOH, pH 10.5, containing 0.1M NaCl.
(§6) Test compounds: 20 mM in DMSO and diluted to a final concentration of 200 μM in culture medium before use.
(§7) For each assay, doxorubicin is included as an inter-assay standard. This allows us to monitor the behaviour of the assay in general, and in particular, to check that the SKVLB line has maintained its resistant phenotype.
(§8) The assays are carried out in 96-well (8 well×12 well) microtiter plates. Serial dilutions of the compound are tested along the length of the plate. A 1:3 serial dilution of compound in culture medium covers a concentration range from 100 μM to 1.7 nM. Each concentration of compound is tested in quadruplet, allowing two compounds to be tested per plate. Wells containing no cells (blank) and cells with no test compound (control) are included on each plate.
(§9) Cells are plated out in 100 μl of culture medium in the microtiter plates at a density of around 1,500-4,000 cells per well. The plates are incubated overnight to allow the cells to become adherent after which the test compound is added (100 μl of appropriate dilution per well). The cells are incubated with test compound at 37° C. for 48 h after which the compound is replaced with fresh medium. After a further 48 h incubation at 37° C., 50 μl of MTT solution (2 mg/ml) is added to each well. The plates are incubated in the dark for 4 h at 37° C. after which the medium is removed. The MTT formazan product is extracted from the cells by the addition of 200 μl DMSO followed by 50 μl of Sorensen's buffer. The plates are shaken briefly and the absorbance at 570 nm is read using a Molecular Devices UV max plate reader. Curves are fit to the MTT assay data using a four parameter logistic equation, and the data are normalized to fit a 0% to 100% survival scale.

Assay [2] concerns SKOV3 (Ovarian adenocarcinoma). The assay can be described thus: In vitro cytotoxicity, microculture tetrazolium (MTT) assay, SKOV3. The note with it: SKOV3 ovarian adenocarcinoma, 48 h with compound, further 48 h, MTT, Table 1. On the procedure:
as §1, §2
SKOV3 (Ovarian adenocarcinoma)--provided by Dr. V. Ling, Ontario Cancer Institute.
as §3, §4, §5, §6, §7, §8, §9

Assay [3] concerns SKVLB (Ovarian; multidrug resistant). The assay can be described thus: In vitro cytotoxicity, microculture tetrazolium (MTT) assay, SKVLB. The note with it: SKVLB multidrug resistant ovarian, 48 h with compound, further 48 h, MTT, Table 1. On the procedure: as §1, §2
SKVLB (Ovarian; multidrug resistant)--Dr. V. Ling, Ontario Cancer Institute.
as §3, §4, §5, §6, §7, §8, §9

Assay [4] relates to T47D (Ductal carcinoma of breast). The experiment in a line: In vitro cytotoxicity, microculture tetrazolium (MTT) assay, T47D. The note with it: 48 h with compound, further 48 h, Table 1. The protocol: as §1, §2
T47D (Ductal carcinoma of breast)--ATCC catalog #HTB-133.
as §3, §4, §5, §6, §7, §8, §9

The subject of assay [5] is Lox (Melanoma). The assay can be described thus: In vitro cytotoxicity, microculture tetrazolium (MTT) assay, LOX. The note with it: Homo sapiens, 48 h with compound, further 48 h, Table 1. The protocol: as §1, §2
Lox (Melanoma)--Southern Research Institute.
as §3, §4, §5, §6, §7, §8, §9

Setting [6] is: Homo sapiens, HT-29, 48 h with compound.

For orientation: pIC50 means the IC50 on a negative log10 scale, so that one unit is a factor of ten. With `CCCC1OC(C(=O)NCCCN(C)C)=CC2=C1C(=O)c1ccccc1C2=O` (centres unmarked) [BCH2168, 1-propyl-3-(3-dimethylaminopropylaminocarbonyl)-5,10-dihydro-5,10-dioxo-1H-naphtho-[2,3-c]-pyran], the pIC50 was 5.92 to 6.41 in assay [1] (setting [6]); 6.56 to 6.74 in assay [2] (Homo sapiens, SK-OV-3); 6.01 in assay [3] (Homo sapiens); 6.24 in assay [4] (Homo sapiens).
For `CC(=O)C1CC2=C(C(=O)c3ccccc3C2=O)C(OC2CC(NC(=O)C(F)(F)F)C(O)C(C)O2)O1` [BCH2145, (1S, 3R)-1-(2',3',6'-trideoxy-3'-trifluoroacetamido-4'-hydroxy-1,5-dihydro-L-lyxohexopyranose-2-yl)-5,10-dioxo-3,4,5,10-tetrahydro-1H-naphtho-[2,3-c] pyran], in assay [4], the pIC50 was 5.75.
With `COC1OC(C(=O)NCCCN2CCCC2=O)=CC2=C1C(=O)c1ccccc1C2=O` (centres unmarked) [BCH2166, 1-methoxy-3-(3-N-pyrrolidinomylpropylaminocarbonyl)-5,10-dioxo-5,10-dihydro-1H-naphtho-[2,3-c]-pyran], the pIC50 in assay [1] (48 h with compound) was 5.92 to 6.35; in assay [2] it was 6.74 to 6.85; in assay [4], 6.63.
For the compound `CC(=O)O[C@@H]1[C@H](C)O[C@@H](OC2OC(C(C)=O)CC3=C2C(=O)c2ccccc2C3=O)C[C@@H]1OC(C)=O` (mixture of isomers) [BCH2118, (1'S,1S,3R) and (1'S,1R,3S)-methyl-(1-[dideoxy-2',6'-diacetoxy-3',4'-L-lyxohexopyranose]-5,10-dioxo-3,4,5,10-tetrahydronaphtho-[2,3-c]-pyran-3-yl) ketone], the pIC50 was 6.69 in assay [1] (setting [6]); 6.92 in assay [2] (Homo sapiens, SK-OV-3); 6.61 in assay [4] (Homo sapiens).
Regarding `CC(=O)O[C@H]1[C@@H](I)[C@H](O[C@@H]2O[C@@H](C(C)=O)CC3=C2C(=O)c2ccccc2C3=O)O[C@@H](C)[C@H]1OC(C)=O` [BCH1667, (1'S,1S,3R)-methyl-(1-[2',6'-dideoxy-3',4'-diacetoxy-2'-iodo-L-lyxohexopyranose]-5,10-dioxo-3,4,5,10-tetrahydronaphtho[2,3-c]-pyran-3-yl) ketone], the negative logarithm of the IC50 (pIC50) is 7.88 in assay [5]; 8.80 in assay [1] (setting [6]); 7.91 in assay [2] (Homo sapiens, SK-OV-3); 7.05 in assay [3] (Homo sapiens).
On the same counts, the results for `COC[C@@H]1CC2=C(C(=O)c3ccccc3C2=O)[C@@H](O[C@H]2C[C@H](NC(=O)C(F)(F)F)[C@H](O)[C@H](C)O2)O1` [BCH1691, (1'S, 1R, 3S)-5,10-dioxo-3-methoxymethyl-1-(2',3',6'-trideoxy-3'-trifluoroacetamido-L-lyxohexopyranose)-3,4,5,10-tetrahydro-1H-naphtho-[2,3-c]-pyran] are 5.35, 5.15, 5.05 and 4.73.
With `COC1OC(C(=O)NCCN2CCOCC2)=CC2=C1C(=O)c1ccccc1C2=O` (centres unmarked) [BCH2171, 1-methoxy-3-[2-(N-morpholine)ethylaminocarbonyl]-5,10-dioxo-5,10-dihydro-1H-naphtho-[2,3-c]-pyran], the negative-log IC50 (pIC50) in assay [3] is 6.36 to 6.37; in assay [4] it was 6.40.
For `COC(=O)[C@@H]1CC2=C(C(=O)c3ccccc3C2=O)[C@@H](O[C@H]2C[C@H](NC(=O)C(F)(F)F)[C@H](O)[C@H](C)O2)O1` [BCH2128, (1'S, 1R, 3S)-5,10-dioxo-3-methoxycarbonyl-1-(2',3',6'-trideoxy-3'-trifluoroacetamido-L-lyxohexopyranose)-3,4,5,10-tetrahydro-1H-naphtho-[2,3-c]-pyrano], the negative-log IC50 (pIC50) in assay [5] is 5.85; in assay [1] (setting [6]), 5.80; in assay [2] (Homo sapiens, SK-OV-3), 5.77; in assay [3] (Homo sapiens), 5.24.
Turning to `CC(C)OC(=O)[C@H]1CC2=C(C(=O)c3ccccc3C2=O)[C@H](O[C@H]2C[C@H](NC(=O)C(F)(F)F)[C@H](O)[C@H](C)O2)O1` [BCH2121], the negative logarithm of the IC50 (pIC50) in assay [5] is 6.47; in assay [1] (setting [6]) it was 6.47; in assay [2] (Homo sapiens, SK-OV-3), 6.68; in assay [3] (Homo sapiens), 5.89.

These data come from patent US5606037A, “Processes antineoplastic heteronaphthoquinones” (BioChem Pharma Inc., priority 1995, dated 1997).
